Measurements: patent US20260042764A1, “COMPOSITIONS AND METHODS FOR INHIBITION OF KRAS” (TheRas, Inc., priority 2022, published 2026)

How the values were obtained:
[1] = molecular target: T1, Avi-KRAS G12D (1-169) GppNHp/RAF1 RBD-3xFLAG (52-151) (Homo sapiens, UniProt P01116, G12D); test: Raf1-KRAS G12D-GppNHP disruption HTRF assay (Biological Example 1); format: binding; conditions: KRAS G12D, GppNHp-loaded; Table 11
T1 construct: Avi-KRAS G12D (1-169)
Experimental: (§1) A protein:protein interaction (PPI) Homogeneous Time Resolved Fluorescence (HTRF) assay was used to determine the effectiveness of compounds of the present disclosure in disrupting KRAS protein and effector RAF1 binding.
(§2) The assay buffer included: 50 mM Tris pH 7.5, 100 mM NaCl, 5 mM MgCl2, 0.1% BSA, 0.01% Tween, and 10% DMSO. The bead buffer included: 50 mM Tris pH 7.5, and 0.01% Tween 20. Assay volume of 20 μL was used in a 384 well plate-low volume format.
(§3) The HTRF assay employed the following protocol:
(§4) Protein mix was prepared in assay buffer, and dispensed on plates, 10 μL per well, then incubated for 1 h at room temperature, with 700 rpm shaking, Reagents mix was prepared and dispensed on plates, 10 μL per well, then incubated for 1 h at room temperature, with 700 rpm shaking.
(§5) Data was reported as percentage of activity, with DMSO as 100%. Data was plotted and analyzed using Prism 8.

[2] = molecular target: T2, Avi-KRAS G12R (1-169) GppNHp/RAF1 RBD-3xFLAG (52-151) (Homo sapiens, UniProt P01116, G12R); test: Raf1-KRAS G12R-GppNHP disruption HTRF assay (Biological Example 1); format: binding; conditions: KRAS G12R, GppNHp-loaded; Table 11
T2 construct: Avi-KRAS G12R (1-169)
Experimental: as §1, §2, §3, §4, §5

[3] = molecular target: T3, Avi-KRAS G12V (1-169) GppNHp/RAF1 RBD-3xFLAG (52-151) (Homo sapiens, UniProt P01116, G12V); test: Raf1-KRAS G12V-GppNHP disruption HTRF assay (Biological Example 1); format: binding; conditions: KRAS G12V, GppNHp-loaded; Table 11
T3 construct: Avi-KRAS G12V (1-169)
Experimental: as §1, §2, §3, §4, §5

[4] = molecular target: T4, Avi-KRAS WT (1-169) GppNHp/RAF1 RBD-3xFLAG (52-151) (Homo sapiens, UniProt P01116); test: Raf1-KRAS WT-GppNHP disruption HTRF assay (Biological Example 1); format: binding; conditions: KRAS WT, GppNHp-loaded; Table 11
T4 construct: Avi-KRAS WT (1-169)
Experimental: as §1, §2, §3, §4, §5

GP2d cells (KRAS G12D) = test: Cell-based pERK HTRF assay in GP2d cell (Biological Example 2); conditions: GP2d, GP2d (KRAS G12D) cells, pERK HTRF
Experimental: A pERK assay (Perkin Elmer) was used to determine the effectiveness of compounds in disrupting KRAS G12D protein/effector signaling in cells.
On Day 1, cells (GP2d) were seeded into 96-well plates at 3×10^4 cells/well in 80 μL complete growth media (DMEM, 10% FBS).
On Day 2, cells were treated with compounds at 0.25% DMSO. The source plate was created with compounds diluted in media at 5-fold the final assay concentration. The compounds were run in a 9-point concentration curve starting at 1 μM or in a 9-point concentration curve starting at 100 nM, with a half-log dilution between concentrations. Twenty μL was transferred onto the cell plates (final volume in wells was 100 μL). Plates were harvested after 60 min incubation by aspirating media and adding kit-supplied 1x supplemented lysis buffer to all wells (50 μL per well). Plates were then placed on a plate shaker and incubated at 850 rpm for an additional 30 min.
Antibody mixture solution was prepared by diluting aliquoted d2 and Eu Cryptate antibodies 1:20 in kit supplied detection buffer, and mixing the diluted antibodies solutions (1:1 v:v).
Samples were homogenized by pipetting up and down and then transferred (16 μL of cell lysates) from the 96-well cell culture plate to two wells of the HTRF 384-well detection plate containing the antibody solution. Plates were centrifuged (524 g for 1 min) and allowed to incubate between 4 and 24 h at room temperature. Maximum signal is reached after 4 h incubation time and remains stable over a period of 24 hours. Therefore, readings can be made between 4 and 24 h of incubation. Plates were centrifuged again (524 g for Imin), then analyzed on the EnVision plate reader using the following settings: Excitation 320 nm, Bandwidth 75 nm; Emission 615 nm, Bandwidth 85 nm; Gain 100%; Flashes 100; Lag 60 μs.

T4 sequence (P01116 1-169 isoform P01116-2): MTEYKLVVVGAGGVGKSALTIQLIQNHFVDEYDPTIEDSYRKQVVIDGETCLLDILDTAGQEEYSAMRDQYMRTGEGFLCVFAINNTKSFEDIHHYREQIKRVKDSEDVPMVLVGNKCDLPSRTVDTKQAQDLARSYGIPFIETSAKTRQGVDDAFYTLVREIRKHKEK
T3 sequence (P01116 1-169 isoform P01116-2 G12V): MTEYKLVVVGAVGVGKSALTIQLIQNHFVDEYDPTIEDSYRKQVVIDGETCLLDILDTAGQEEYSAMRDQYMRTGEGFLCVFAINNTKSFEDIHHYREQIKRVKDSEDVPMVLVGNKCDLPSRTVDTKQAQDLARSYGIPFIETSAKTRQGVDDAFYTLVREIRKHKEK
T1 sequence (P01116 1-169 isoform P01116-2 G12D): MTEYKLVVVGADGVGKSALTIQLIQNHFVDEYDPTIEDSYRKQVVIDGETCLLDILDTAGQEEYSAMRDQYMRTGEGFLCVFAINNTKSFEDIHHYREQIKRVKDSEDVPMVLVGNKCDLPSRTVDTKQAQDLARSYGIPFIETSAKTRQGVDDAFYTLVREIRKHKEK
T2 sequence (P01116 1-169 isoform P01116-2 G12R): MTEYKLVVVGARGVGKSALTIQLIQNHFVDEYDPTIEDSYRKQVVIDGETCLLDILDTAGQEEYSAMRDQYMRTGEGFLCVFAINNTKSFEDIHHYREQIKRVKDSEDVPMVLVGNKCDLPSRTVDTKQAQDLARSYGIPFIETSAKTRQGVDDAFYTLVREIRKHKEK

Row | SMILES | IC50 [1] [µM] | IC50 [2] [µM] | IC50 [3] [µM] | IC50 [4] [µM] | IC50 (GP2d cells (KRAS G12D)) [µM]
1 | CCN(c1nc(OC[C@@]23CCCN2C[C@H](F)C3)nc2c(F)c(-c3ccc(F)c4sc(N)c(C#N)c34)c(C(F)(F)F)cc12)[C@H]1C[C@@H](O)C1 [Compound 26, 2-amino-4-[4-[ethyl-(3-hydroxycyclobutyl)amino]-8-fluoro-2-[[(2R,8S)-2-fluoro-1,2,3,5,6,7-hexahydropyrrolizin-8-yl]methoxy]-6-(trifluoromethyl)quinazolin-7-yl]-7-fluoro-benzothiophene-3-carbonitrile] | < 0.1 | 0.1 to 1 | 0.1 to 1 | 0.1 to 1 | < 0.1
2 | CO[C@H]1C[C@@H](N(C)c2nc(OC[C@@]34CCCN3C[C@H](F)C4)nc3c(F)c(-c4ccc(F)c5sc(N)c(C#N)c45)c(C(F)(F)F)cc23)C1 [Compound 27] | 0.1 to 1 | 0.1 to 1 | 1 to 10 | 0.1 to 1 | < 0.1
3 | CN(c1nc(OC[C@@]23CCCN2C[C@H](F)C3)nc2c(F)c(-c3ccc(F)c4sc(N)c(C#N)c34)ccc12)[C@H]1C[C@@H](O)C1 [Compound 28] | 0.1 to 1 | 1 to 10 | 1 to 10 | 0.1 to 1 | 0.1 to 1
4 | CN(c1nc(OC[C@@]23CCCN2C[C@H](F)C3)nc2cc(-c3ccc(F)c4sc(N)c(C#N)c34)c(C#N)cc12)[C@H]1C[C@@H](O)C1 [Compound 29] | 1 to 10 | 1 to 10 | 1 to 10 | 1 to 10 | 0.1 to 1
5 | CN(c1nc(OC[C@@]23CCCN2C[C@H](F)C3)nc2c(C#N)c(-c3ccc(F)c4sc(N)c(C#N)c34)c(Cl)cc12)[C@H]1C[C@@H](O)C1 [Compound 30, 7-(2-amino-3-cyano-7-fluorobenzo[b]thiophen-4-yl)-6-chloro-2-(((2R,7aS)-2-fluorotetrahydro-1H-pyrrolizin-7a(5H)-yl)methoxy)-4-(((1s,3R)-3-hydroxycyclobutyl)(methyl)amino)quinazoline-8-carbonitrile] | 0.1 to 1 | 0.1 to 1 | 0.1 to 1 | 0.1 to 1 | 0.1 to 1
6 | Nc1nc2c(-c3c(C(F)(F)F)cc4c(N5CCC(CO)CC5)nc(OCC56CCCN5CCC6)nc4c3F)ccc(F)c2s1 [Compound 43] | 0.1 to 1 | 1 to 10 | 1 to 10 | 0.1 to 1 | 
7 | Nc1nc2c(-c3c(C(F)(F)F)cc4c(N5CCCC(O)C5)nc(OCC56CCCN5CCC6)nc4c3F)ccc(F)c2s1 (centres unmarked) [Compound 53] | 1 to 10 | 1 to 10 | > 10 | > 10 | 
8 | Nc1nc2c(-c3c(C(F)(F)F)cc4c(N5CCC(O)C5)nc(OCC56CCCN5CCC6)nc4c3F)ccc(F)c2s1 (centres unmarked) [Compound 55] | 1 to 10 | > 10 | > 10 | 1 to 10 | 
9 | Nc1nc2c(-c3c(C(F)(F)F)cc4c(N5CCC(CO)C5)nc(OCC56CCCN5CCC6)nc4c3F)ccc(F)c2s1 (centres unmarked) [Compound 56] | 1 to 10 | > 10 | > 10 | 1 to 10 | 
10 | Nc1nc2c(-c3c(C(F)(F)F)cc4c(N5CC(CO)C5)nc(OCC56CCCN5CCC6)nc4c3F)ccc(F)c2s1 [Compound 57] | 1 to 10 | 1 to 10 | > 10 | 1 to 10 | 
11 | Nc1nc2c(-c3c(C(F)(F)F)cc4c(N[C@H]5CC[C@@H](O)CC5)nc(OCC56CCCN5CCC6)nc4c3F)ccc(F)c2s1 [Compound 64] | 1 to 10 | 1 to 10 | 1 to 10 | 1 to 10 | 
12 | Nc1nc2c(-c3c(C(F)(F)F)cc4c(NC[C@@H]5CC[C@H](CO)C5)nc(OCC56CCCN5CCC6)nc4c3F)ccc(F)c2s1 [Compound 68] | > 10 | > 10 | 1 to 10 | > 10 | 
